From PubChem BioAssay AID1259407 (Chemical Carcinogenesis Research Information System (CCRIS), 2018)
Calls of active or inactive are those of the source. How the calls were made is not given here.

Test system: CCRIS mutagenicity, Ames/micronucleus/aberration tests
Assay: CCRIS mutagenicity studies
[1] = Test System: AMES SALMONELLA TYPHIMURIUM, Strain/Indicator: TA98, Metabolic Activation: NONE, Method: PREINCUBATION
[2] = Test System: AMES SALMONELLA TYPHIMURIUM, Strain/Indicator: TA100, Metabolic Activation: NONE, Method: PREINCUBATION
[3] = Test System: AMES SALMONELLA TYPHIMURIUM, Strain/Indicator: TA1535, Metabolic Activation: NONE, Method: PREINCUBATION

Question: Which results are given for c1ccc2c(c1)cc1ccc3cc4ccccc4c4ccc2c1c34?
Answer: mutagenic call (Test System: AMES SALMONELLA TYPHIMURIUM, Strain/Indicator: TA98, Metabolic Activation: NONE, Method: STANDARD PLATE): inactive; negative; mutagenic call (Test System: AMES SALMONELLA TYPHIMURIUM, Strain/Indicator: TA98, Metabolic Activation: RAT, LIVER, S-9, AROCLOR 1254, Method: STANDARD PLATE): active; positive; mutagenic call (Test System: AMES SALMONELLA TYPHIMURIUM, Strain/Indicator: TA100, Metabolic Activation: NONE, Method: STANDARD PLATE): inactive; negative; mutagenic call (Test System: AMES SALMONELLA TYPHIMURIUM, Strain/Indicator: TA100, Metabolic Activation: RAT, LIVER, S-9, AROCLOR 1254, Method: STANDARD PLATE): active; positive; mutagenic call (Test System: AMES SALMONELLA TYPHIMURIUM, Strain/Indicator: TA1537, Metabolic Activation: NONE, Method: STANDARD PLATE): inactive; negative; mutagenic call (Test System: AMES SALMONELLA TYPHIMURIUM, Strain/Indicator: TA1537, Metabolic Activation: RAT, LIVER, S-9, AROCLOR 1254, Method: STANDARD PLATE): inactive; negative; mutagenic call (Test System: AMES SALMONELLA TYPHIMURIUM, Strain/Indicator: TA1538, Metabolic Activation: NONE, Method: STANDARD PLATE): inactive; negative; mutagenic call (Test System: AMES SALMONELLA TYPHIMURIUM, Strain/Indicator: TA1538, Metabolic Activation: RAT, LIVER, S-9, PHENOBARBITAL, Method: STANDARD PLATE): active; positive; mutagenic call (Test System: HUMAN H1A1V2 CELLS, Strain/Indicator: TK LOCUS, Metabolic Activation: NONE, Method: SUSPENSION/PLATE): active; positive

Question: Which mutagenic call (Test System: AMES SALMONELLA TYPHIMURIUM, Strain/Indicator: TA97, Metabolic Activation: HAMSTER, LIVER, S-9, AROCLOR 1254 (10 OR 30%), Method: PREINCUBATION) does the source give for O=C(O)c1ccccc1Cl here?
Answer: inactive; negative

Question: And the mutagenic call (Test System: AMES SALMONELLA TYPHIMURIUM, Strain/Indicator: TA97, Metabolic Activation: NONE, Method: PREINCUBATION)?
Answer: inactive; negative

Question: And the mutagenic call (Test System: AMES SALMONELLA TYPHIMURIUM, Strain/Indicator: TA97, Metabolic Activation: RAT, LIVER, S-9, AROCLOR 1254 (10 OR 30%), Method: PREINCUBATION)?
Answer: inactive; negative

Question: What about the mutagenic call (Test System: AMES SALMONELLA TYPHIMURIUM, Strain/Indicator: TA98, Metabolic Activation: HAMSTER, LIVER, S-9, AROCLOR 1254 (10 OR 30%), Method: PREINCUBATION) of the same compound?
Answer: inactive; negative

Question: And the mutagenic call [1]?
Answer: inactive; negative

Question: What about the mutagenic call (Test System: AMES SALMONELLA TYPHIMURIUM, Strain/Indicator: TA98, Metabolic Activation: RAT LIVER S-9, PCB, Method: PREINCUBATION) of the same compound?
Answer: inactive; negative

Question: And the mutagenic call (Test System: AMES SALMONELLA TYPHIMURIUM, Strain/Indicator: TA98, Metabolic Activation: RAT LIVER S-9, PHENOBARBITAL AND BETA-NAPHTHOFLAVONE, Method: PREINCUBATION)?
Answer: inactive; negative

Question: And the mutagenic call (Test System: AMES SALMONELLA TYPHIMURIUM, Strain/Indicator: TA98, Metabolic Activation: RAT, LIVER, S-9, AROCLOR 1254 (10 OR 30%), Method: PREINCUBATION)?
Answer: inactive; negative

Question: What about the mutagenic call (Test System: AMES SALMONELLA TYPHIMURIUM, Strain/Indicator: TA100, Metabolic Activation: HAMSTER, LIVER, S-9, AROCLOR 1254 (10 OR 30%), Method: PREINCUBATION) of the same compound?
Answer: inactive; negative

Question: And the mutagenic call [2]?
Answer: inactive; negative

Question: And the mutagenic call (Test System: AMES SALMONELLA TYPHIMURIUM, Strain/Indicator: TA100, Metabolic Activation: RAT LIVER S-9, PCB, Method: PREINCUBATION)?
Answer: inactive; negative

Question: What about the mutagenic call (Test System: AMES SALMONELLA TYPHIMURIUM, Strain/Indicator: TA100, Metabolic Activation: RAT LIVER S-9, PHENOBARBITAL AND BETA-NAPHTHOFLAVONE, Method: PREINCUBATION) of the same compound?
Answer: inactive; negative

Question: What about the mutagenic call (Test System: AMES SALMONELLA TYPHIMURIUM, Strain/Indicator: TA100, Metabolic Activation: RAT, LIVER, S-9, AROCLOR 1254 (10 OR 30%), Method: PREINCUBATION) of the same compound?
Answer: inactive; negative

Question: What about the mutagenic call (Test System: AMES SALMONELLA TYPHIMURIUM, Strain/Indicator: TA104, Metabolic Activation: NONE, Method: PREINCUBATION) of the same compound?
Answer: inactive; negative

Question: And the mutagenic call (Test System: AMES SALMONELLA TYPHIMURIUM, Strain/Indicator: TA104, Metabolic Activation: RAT LIVER S-9, PCB, Method: PREINCUBATION)?
Answer: inactive; negative

Question: What about the mutagenic call (Test System: AMES SALMONELLA TYPHIMURIUM, Strain/Indicator: TA1535, Metabolic Activation: HAMSTER, LIVER, S-9, AROCLOR 1254 (10 OR 30%), Method: PREINCUBATION) of the same compound?
Answer: inactive; negative

Question: What about the mutagenic call [3] of the same compound?
Answer: inactive; negative

Question: And the mutagenic call (Test System: AMES SALMONELLA TYPHIMURIUM, Strain/Indicator: TA1535, Metabolic Activation: RAT LIVER S-9, PHENOBARBITAL AND BETA-NAPHTHOFLAVONE, Method: PREINCUBATION)?
Answer: inactive; negative

Question: And the mutagenic call (Test System: AMES SALMONELLA TYPHIMURIUM, Strain/Indicator: TA1535, Metabolic Activation: RAT, LIVER, S-9, AROCLOR 1254 (10 OR 30%), Method: PREINCUBATION)?
Answer: inactive; negative

Question: What about the mutagenic call (Test System: AMES SALMONELLA TYPHIMURIUM, Strain/Indicator: TA1537, Metabolic Activation: HAMSTER, LIVER, S-9, AROCLOR 1254 (30%), Method: PREINCUBATION) of the same compound?
Answer: inactive; negative

Question: And the mutagenic call (Test System: AMES SALMONELLA TYPHIMURIUM, Strain/Indicator: TA1537, Metabolic Activation: NONE, Method: PREINCUBATION)?
Answer: inactive; negative

Question: And the mutagenic call (Test System: AMES SALMONELLA TYPHIMURIUM, Strain/Indicator: TA1537, Metabolic Activation: RAT LIVER S-9, PHENOBARBITAL AND BETA-NAPHTHOFLAVONE, Method: PREINCUBATION)?
Answer: inactive; negative

Question: And the mutagenic call (Test System: AMES SALMONELLA TYPHIMURIUM, Strain/Indicator: TA1537, Metabolic Activation: RAT, LIVER, S-9, AROCLOR 1254 (30%), Method: PREINCUBATION)?
Answer: inactive; negative

Question: And the mutagenic call (Test System: AMES SALMONELLA TYPHIMURIUM, Strain/Indicator: TA1538, Metabolic Activation: NONE, Method: PREINCUBATION)?
Answer: inactive; negative

Question: What about the mutagenic call (Test System: AMES SALMONELLA TYPHIMURIUM, Strain/Indicator: TA1538, Metabolic Activation: RAT LIVER S-9, PHENOBARBITAL AND BETA-NAPHTHOFLAVONE, Method: PREINCUBATION) of the same compound?
Answer: inactive; negative

Question: And the mutagenic call (Test System: E.COLI, Strain/Indicator: WP2 UVRA, Metabolic Activation: NONE, Method: PREINCUBATION)?
Answer: inactive; negative

Question: What about the mutagenic call (Test System: E.COLI, Strain/Indicator: WP2UVRA, Metabolic Activation: NONE, Method: PREINCUBATION) of the same compound?
Answer: inactive; negative

Question: And the mutagenic call (Test System: E.COLI, Strain/Indicator: WP2 UVRA, Metabolic Activation: RAT LIVER S-9, PCB, Method: PREINCUBATION)?
Answer: inactive; negative

Question: What about the mutagenic call (Test System: E.COLI, Strain/Indicator: WP2UVRA, Metabolic Activation: RAT LIVER S-9, PHENOBARBITAL AND BETA-NAPHTHOFLAVONE, Method: PREINCUBATION) of the same compound?
Answer: inactive; negative

Question: How did the mutagenic call [1] turn out when C/C=C/C=C/C was run?
Answer: inactive; negative

Question: And the mutagenic call (Test System: AMES SALMONELLA TYPHIMURIUM, Strain/Indicator: TA98, Metabolic Activation: S-9, Method: PREINCUBATION)?
Answer: inactive; negative

Question: And the mutagenic call [2]?
Answer: inactive; negative

Question: What about the mutagenic call (Test System: AMES SALMONELLA TYPHIMURIUM, Strain/Indicator: TA100, Metabolic Activation: S-9, Method: PREINCUBATION) of the same compound?
Answer: inactive; negative

Question: What about the mutagenic call [3] of the same compound?
Answer: inactive; negative

Question: What about the mutagenic call (Test System: AMES SALMONELLA TYPHIMURIUM, Strain/Indicator: TA1535, Metabolic Activation: S-9, Method: PREINCUBATION) of the same compound?
Answer: inactive; negative

Question: What about the mutagenic call (Test System: E.COLI, Strain/Indicator: WP2UVRA/PKM101, Metabolic Activation: NONE, Method: PREINCUBATION) of the same compound?
Answer: inactive; negative

Question: What about the mutagenic call (Test System: E.COLI, Strain/Indicator: WP2UVRA/PKM101, Metabolic Activation: S-9, Method: PREINCUBATION) of the same compound?
Answer: inactive; negative
